Biological target: T1, human PAH with the R408W mutation (A375 R408W cells) (Homo sapiens, UniProt P00439, R408W)
T1 construct: expressed in transfected cells
T1 sequence (P00439 1-452 R408W): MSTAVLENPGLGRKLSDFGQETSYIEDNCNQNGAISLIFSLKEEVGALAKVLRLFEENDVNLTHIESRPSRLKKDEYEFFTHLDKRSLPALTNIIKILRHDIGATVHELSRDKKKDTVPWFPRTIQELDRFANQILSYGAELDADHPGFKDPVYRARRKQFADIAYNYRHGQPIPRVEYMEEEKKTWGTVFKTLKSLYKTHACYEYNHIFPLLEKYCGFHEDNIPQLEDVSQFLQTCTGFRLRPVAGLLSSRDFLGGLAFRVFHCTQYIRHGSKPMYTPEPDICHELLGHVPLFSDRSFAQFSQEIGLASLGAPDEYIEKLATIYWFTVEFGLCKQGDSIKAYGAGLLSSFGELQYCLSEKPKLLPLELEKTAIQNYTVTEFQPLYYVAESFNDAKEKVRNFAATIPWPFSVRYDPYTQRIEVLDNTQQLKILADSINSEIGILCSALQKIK
Assay: Cell Based Phenylalanine Flux Assay
Settings: A375 cells expressing R408W PAH; 24 hrs with compound, then 20 μM sepiapterin and 800 μM 13C9,15N-Phenylalanine for 4 hours; 13C-Tyrosine by LC-MS; average where tested multiple times
Experimental: Cells expressing R408W PAH were made by transducing A375 cells with lentivirus encoding human PAH with the R408W mutation in pLVX-Puro, then selecting with puromycin until stable cell lines were generated. A375 R408W cells were seeded into 96 well plates in DMEM+10% FBS at a density of 40,000 cells/well one hour prior to compound addition. Compounds were resuspended in DMSO, and 2-fold serial dilutions were performed to generate a 10-point dose curve. Compounds were added to plated cells in a total volume of 100 μl, and a final DMSO concentration of 0.5%. Each compound was tested in duplicate. Following compound addition, cells were placed in a 5% CO2, 37° C. tissue culture incubator for 24 hrs. After the incubation period, 20 μM sepiapterin and 800 μM 13C9,15N-Phenylalanine were added. After 4 hours, cell media was removed. An aliquot of 10 μl of cell media was combined with 200 μl of extraction buffer (80% acetonitrile/20% H2O) for each well. Determination of ^13C-Tyrosine concentration was assessed by liquid chromatography mass spectrometry.
Specific compounds disclosed herein were tested in the foregoing assay and they were determined to have an AC50 according to the following scores: (A) less than or equal to 0.500 μM, (B) greater than 0.500 and less than […], (C) greater than or equal to 1.000 and less than 5.000 μM, (D) greater than or equal to 5.000 μM, (E) no fit, and (NT) not tested, as shown below. Where a compound was tested multiple times, the average value of the tests is reported.

Compound | AC50
Cc1nc(C2(O)CC2)oc1C(=O)N1CCc2[nH]cnc2C1c1nc2cc(F)ccc2o1 (stereo not drawn) [listing 1 of 2 here] | ≥ 5 µM
Cc1nc(C2(O)CCC2)oc1C(=O)N1CCc2[nH]cnc2C1c1nc2cc(F)ccc2o1 (stereo not drawn) [listing 1 of 2 here] | ≥ 5 µM
Nc1cc(C(=O)N2CCc3[nH]cnc3C2c2nc3cc(F)ccc3o2)n(C(F)F)n1 (stereo not drawn) [listing 1 of 2 here] | ≥ 5 µM
Cc1nc(C(C)(C)O)oc1C(=O)N1CCc2[nH]cnc2C1c1nc2ccc(F)cc2o1 (stereo not drawn) [listing 1 of 2 here] | ≥ 5 µM
Cc1cc(-c2nnc(C(=O)N3CCc4[nH]cnc4C3c3nc4cc(F)ccc4o3)o2)nn1C (stereo not drawn) | 1 to 5 µM
COC(C)(C)c1nc(C)c(C(=O)N2CCc3[nH]cnc3C2c2nc3cc(F)ccc3o2)o1 (stereo not drawn) [listing 1 of 2 here] | ≥ 5 µM
O=C(c1nnc(-c2c[nH]nc2C(F)(F)F)o1)N1CCc2[nH]cnc2C1c1nc2cc(F)ccc2o1 (stereo not drawn) [listing 1 of 2 here] | ≥ 5 µM
O=C(c1cnn2cc(N3CCN(CC(F)(F)F)CC3)ccc12)N1CCc2[nH]cnc2C1c1nc2cc(F)ccc2o1 (stereo not drawn) [listing 1 of 2 here] | ≥ 5 µM
Cn1cc(-c2ncc(C(=O)N3CCc4[nH]cnc4C3c3nc4ccc(Br)cc4o3)o2)cn1 (stereo not drawn) [listing 1 of 2 here] | ≥ 5 µM
Cc1nc(C(C)O)oc1C(=O)N1CCc2[nH]cnc2C1c1nc2ccc(F)cc2o1 (stereo not drawn) [listing 1 of 2 here] | ≥ 5 µM
Cc1nc(C(C)O)oc1C(=O)N1CCc2[nH]cnc2C1c1nc2c(F)cccc2o1 (stereo not drawn) [listing 1 of 2 here] | ≥ 5 µM
Cc1nc(C(C)O)oc1C(=O)N1CCc2[nH]cnc2C1c1nc2cc(F)ccc2o1 (stereo not drawn) | ≥ 5 µM
Cc1nc(C(C)(C)N(C)C)oc1C(=O)N1CCc2[nH]cnc2C1c1nc2cc(F)ccc2o1 (stereo not drawn) [listing 1 of 2 here] | ≥ 5 µM
Cc1ccc2oc(C3c4nc[nH]c4CCN3C(=O)c3cnn4cc(CCN(C)C)ccc34)nc2c1 (stereo not drawn) [listing 1 of 2 here] | ≥ 5 µM
CCOC(=O)N1CCN(c2ccc3c(C(=O)N4CCc5[nH]cnc5C4c4nc5cc(F)ccc5o4)cnn3c2)CC1 (stereo not drawn) [listing 1 of 2 here] | ≥ 5 µM
Cc1nc(C2(O)CCC2)oc1C(=O)N1CCc2[nH]cnc2C1c1nc2cc(F)ccc2o1 (stereo not drawn) [listing 2 of 2 here] | 1 to 5 µM
Cc1nc(C2(O)CC2)oc1C(=O)N1CCc2[nH]cnc2C1c1nc2cc(F)ccc2o1 (stereo not drawn) [listing 2 of 2 here] | 1 to 5 µM
Nc1cc(C(=O)N2CCc3[nH]cnc3C2c2nc3cc(F)ccc3o2)n(C(F)F)n1 (stereo not drawn) [listing 2 of 2 here] | 1 to 5 µM

Compound | AC50
O=C(c1oc(C2CCN2)nc1C(F)F)N1CCc2[nH]cnc2C1c1nc2cc(F)ccc2o1 (stereo not drawn) | 1 to 5 µM
Cn1nc(C(C)(C)O)cc1C(=O)N1CCc2[nH]cnc2C1c1nc2cc(F)ccc2o1 (stereo not drawn) | ≥ 5 µM
Cc1nc(C(C)(C)O)oc1C(=O)N1CCc2[nH]cnc2C1c1nc2ccc(F)cc2o1 (stereo not drawn) [listing 2 of 2 here] | 1 to 5 µM
CC(C)(c1nc(C(F)F)c(C(=O)N2CCc3[nH]cnc3C2c2nc3cc(F)ccc3o2)o1)S(C)(=O)=O (stereo not drawn) | 1 to 5 µM
Cn1nc(C(F)(F)F)nc1C(=O)N1CCc2[nH]cnc2C1c1nc2cc(F)ccc2o1 (stereo not drawn) | 1 to 5 µM
COC(C)(C)c1nc(C)c(C(=O)N2CCc3[nH]cnc3C2c2nc3cc(F)ccc3o2)o1 (stereo not drawn) [listing 2 of 2 here] | 1 to 5 µM
O=C(c1nnc(-c2c[nH]nc2C(F)(F)F)o1)N1CCc2[nH]cnc2C1c1nc2cc(F)ccc2o1 (stereo not drawn) [listing 2 of 2 here] | 1 to 5 µM
O=C(c1cnn2cc(N3CCN(CC(F)(F)F)CC3)ccc12)N1CCc2[nH]cnc2C1c1nc2cc(F)ccc2o1 (stereo not drawn) [listing 2 of 2 here] | 1 to 5 µM
Cn1cc(-c2ncc(C(=O)N3CCc4[nH]cnc4C3c3nc4ccc(Br)cc4o3)o2)cn1 (stereo not drawn) [listing 2 of 2 here] | 1 to 5 µM
Cn1cc(-c2nnc(C(=O)N3CCc4[nH]cnc4C3c3nc4ccc(F)cc4o3)o2)cn1 (stereo not drawn) | 1 to 5 µM
Cc1nc(C(C)O)oc1C(=O)N1CCc2[nH]cnc2C1c1nc2ccc(F)cc2o1 (stereo not drawn) [listing 2 of 2 here] | 1 to 5 µM
Cc1nc(C(C)O)oc1C(=O)N1CCc2[nH]cnc2C1c1nc2c(F)cccc2o1 (stereo not drawn) [listing 2 of 2 here] | 1 to 5 µM
Cc1nc(C(C)(C)N(C)C)oc1C(=O)N1CCc2[nH]cnc2C1c1nc2cc(F)ccc2o1 (stereo not drawn) [listing 2 of 2 here] | 1 to 5 µM
CNC(C)(C)c1nc(C)c(C(=O)N2CCc3[nH]cnc3C2c2nc3cc(F)ccc3o2)o1 (stereo not drawn) | 1 to 5 µM
Cc1ccc2oc(C3c4nc[nH]c4CCN3C(=O)c3cnn4cc(CCN(C)C)ccc34)nc2c1 (stereo not drawn) [listing 2 of 2 here] | 1 to 5 µM
CCOC(=O)N1CCN(c2ccc3c(C(=O)N4CCc5[nH]cnc5C4c4nc5cc(F)ccc5o4)cnn3c2)CC1 (stereo not drawn) [listing 2 of 2 here] | 1 to 5 µM
CC(C)(C)OC(=O)N1CC(c2nnc(C(=O)N3CCc4[nH]cnc4C3c3nc4cc(F)ccc4o3)o2)C1 (stereo not drawn) | 1 to 5 µM
CC(C)(C)OC(=O)N1CCN(c2ccc3c(C(=O)N4CCc5[nH]cnc5C4c4nc5cc(F)ccc5o4)cnn3c2)CC1 (stereo not drawn) | 1 to 5 µM

More lines, now with the values ahead:

AC50 | Compound
≥ 5 µM | NCc1ccc2c(C(=O)N3CCc4[nH]cnc4C3c3nc4cc(F)ccc4o3)cnn2c1 (stereo not drawn) [listing 1 of 2 here]
≥ 5 µM | CC(C)(O)C1CCN(c2ccc3c(C(=O)N4CCc5[nH]cnc5C4c4nc5cc(F)ccc5o4)cnn3c2)CC1 (stereo not drawn) [listing 1 of 2 here]
≥ 5 µM | O=C(c1cnn(-c2ccccn2)c1Cl)N1CCc2[nH]cnc2C1c1nc2cc(F)ccc2o1 (stereo not drawn) [listing 1 of 2 here]
≥ 5 µM | O=C(c1cnn2cc(N3CCC4(CC3)CC4)ccc12)N1CCc2[nH]cnc2C1c1nc2cc(F)ccc2o1 (stereo not drawn) [listing 1 of 2 here]
≥ 5 µM | N#Cc1ccc2c(C(=O)N3CCc4[nH]cnc4C3c3nc4cc(F)ccc4o3)cnn2c1 (stereo not drawn) [listing 1 of 2 here]
≥ 5 µM | Cn1ccc(C(=O)N2CCc3[nH]cnc3C2c2nc3cc(F)ccc3o2)n1 (stereo not drawn) [listing 1 of 2 here]
≥ 5 µM | O=C(c1cnco1)N1CCc2[nH]cnc2C1c1nc2cc(F)ccc2o1 (stereo not drawn) [listing 1 of 2 here]
≥ 5 µM | Cn1cc(-c2ncc(C(=O)N3CCc4[nH]cnc4C3c3nc4cc(F)ccc4o3)o2)cn1 (stereo not drawn) [listing 1 of 2 here]
≥ 5 µM | Cc1ncoc1C(=O)N1CCc2[nH]cnc2C1c1nc2cc(F)ccc2o1 (stereo not drawn) [listing 1 of 2 here]
1 to 5 µM | O=C(c1nnc(-c2cc[nH]n2)o1)N1CCc2[nH]cnc2C1c1nc2cc(F)ccc2o1 (stereo not drawn)
≥ 5 µM | O=C(c1cnn2cc(N3CCC(F)CC3)ccc12)N1CCc2[nH]cnc2C1c1nc2cc(F)ccc2o1 (stereo not drawn) [listing 1 of 2 here]
≥ 5 µM | O=C(c1cnn2cc(N3CCOCC3)ccc12)N1CCc2[nH]cnc2C1c1nc2cc(F)ccc2o1 (stereo not drawn) [listing 1 of 2 here]
≥ 5 µM | Nc1cc2c(C(=O)N3CCc4[nH]cnc4C3c3nc4cc(F)ccc4o3)cnn2cc1F (stereo not drawn) [listing 1 of 2 here]
1 to 5 µM | O=C(c1cnn2cc(N3CCC(O)CC3)ccc12)N1CCc2[nH]cnc2C1c1nc2cc(F)ccc2o1 (stereo not drawn)
1 to 5 µM | NCc1ccc2c(C(=O)N3CCc4[nH]cnc4C3c3nc4cc(F)ccc4o3)cnn2c1 (stereo not drawn) [listing 2 of 2 here]
≥ 5 µM | CC(C)(O)Cn1cc(C(=O)N2CCc3[nH]cnc3C2c2nc3cc(F)ccc3o2)cn1 (stereo not drawn)
1 to 5 µM | CC(C)(O)C1CCN(c2ccc3c(C(=O)N4CCc5[nH]cnc5C4c4nc5cc(F)ccc5o4)cnn3c2)CC1 (stereo not drawn) [listing 2 of 2 here]
≥ 5 µM | CC(C)(O)c1cc(C(=O)N2CCc3[nH]cnc3C2c2nc3cc(F)ccc3o2)no1 (stereo not drawn)
1 to 5 µM | O=C(c1cn(-c2ccccn2)nc1Cl)N1CCc2[nH]cnc2C1c1nc2cc(F)ccc2o1 (stereo not drawn)
1 to 5 µM | Cn1nc(Cl)nc1C(=O)N1CCc2[nH]cnc2C1c1nc2cc(F)ccc2o1 (stereo not drawn)

AC50 | Compound
1 to 5 µM | CC(C)(O)c1ncc(C(=O)N2CCc3[nH]cnc3C2c2nc3cc(F)ccc3o2)o1 (stereo not drawn)
1 to 5 µM | CC(C)(O)c1ncc(C(=O)N2CCc3[nH]cnc3C2c2nc3cc(F)ccc3o2)s1 (stereo not drawn)
1 to 5 µM | O=C(c1cnn(-c2ccccn2)c1Cl)N1CCc2[nH]cnc2C1c1nc2cc(F)ccc2o1 (stereo not drawn) [listing 2 of 2 here]
1 to 5 µM | O=C(c1cn[nH]c1Cl)N1CCc2[nH]cnc2C1c1nc2cc(F)ccc2o1 (stereo not drawn)
1 to 5 µM | O=C(c1cnn2cc(N3CCC4(CC3)CC4)ccc12)N1CCc2[nH]cnc2C1c1nc2cc(F)ccc2o1 (stereo not drawn) [listing 2 of 2 here]
1 to 5 µM | N#Cc1ccc2c(C(=O)N3CCc4[nH]cnc4C3c3nc4cc(F)ccc4o3)cnn2c1 (stereo not drawn) [listing 2 of 2 here]
≥ 5 µM | O=C(c1cnn2cc(N3CCS(=O)(=O)CC3)ccc12)N1CCc2[nH]cnc2C1c1nc2cc(F)ccc2o1 (stereo not drawn)
≥ 5 µM | Cn1nc(N)cc1C(=O)N1CCc2[nH]cnc2C1c1nc2cc(F)ccc2o1 (stereo not drawn)
1 to 5 µM | Cn1ccc(C(=O)N2CCc3[nH]cnc3C2c2nc3cc(F)ccc3o2)n1 (stereo not drawn) [listing 2 of 2 here]
≥ 5 µM | O=C(c1ccn[nH]1)N1CCc2[nH]cnc2C1c1nc2cc(F)ccc2o1 (stereo not drawn)
1 to 5 µM | O=C(c1cnco1)N1CCc2[nH]cnc2C1c1nc2cc(F)ccc2o1 (stereo not drawn) [listing 2 of 2 here]
1 to 5 µM | Cn1cc(-c2ncc(C(=O)N3CCc4[nH]cnc4C3c3nc4cc(F)ccc4o3)o2)cn1 (stereo not drawn) [listing 2 of 2 here]
1 to 5 µM | Cc1ncoc1C(=O)N1CCc2[nH]cnc2C1c1nc2cc(F)ccc2o1 (stereo not drawn) [listing 2 of 2 here]
1 to 5 µM | O=C(c1nnc(-c2cn[nH]c2)o1)N1CCc2[nH]cnc2C1c1nc2cc(F)ccc2o1 (stereo not drawn)
1 to 5 µM | Cc1n[nH]cc1-c1nnc(C(=O)N2CCc3[nH]cnc3C2c2nc3cc(F)ccc3o2)o1 (stereo not drawn)
1 to 5 µM | O=C(c1cnn2cc(N3CCC(F)CC3)ccc12)N1CCc2[nH]cnc2C1c1nc2cc(F)ccc2o1 (stereo not drawn) [listing 2 of 2 here]
1 to 5 µM | O=C(c1cnn2cc(N3CCOCC3)ccc12)N1CCc2[nH]cnc2C1c1nc2cc(F)ccc2o1 (stereo not drawn) [listing 2 of 2 here]
1 to 5 µM | COCc1ccc2c(C(=O)N3CCc4[nH]cnc4C3c3nc4ccc(F)cc4o3)cnn2c1 (stereo not drawn)
1 to 5 µM | Nc1cc2c(C(=O)N3CCc4[nH]cnc4C3c3nc4cc(F)ccc4o3)cnn2cc1F (stereo not drawn) [listing 2 of 2 here]
